Structures can show the parent of a compound that is named as a salt. Where two headings read alike, the source gives them in different places.
Columns and labels:
Parameters in all cases: species or system AML cell lines (8); Primary HTS, single concentration about 10 uM, Cell Titer Glo viability; log10 luminescence, per cent inhibition relative to cycloheximide control
Conditions in all cases: 72 h, inhibitor
M07e = tested on: M07e
ML-2 = tested on: ML-2
CHRF288-11 = tested on: CHRF288-11
U937 = tested on: U937
CMK = tested on: CMK
MOLM-13 = tested on: MOLM-13
MV4-11 = tested on: MV4-11
CMS = tested on: CMS
[1] = relative to cycloheximide control, log10 luminescence
[2] = relative to cycloheximide control, log10 luminescence, M07e %inh, 10 µM
[3] = relative to cycloheximide control, log10 luminescence, ML-2 %inh, 10 µM
[4] = relative to cycloheximide control, log10 luminescence, CHRF288-11 %inh, 10 µM
[5] = relative to cycloheximide control, log10 luminescence, U937 %inh, 10 µM
[6] = relative to cycloheximide control, log10 luminescence, CMK %inh, 10 µM
[7] = relative to cycloheximide control, log10 luminescence, MOLM-13 %inh, 10 µM
[8] = relative to cycloheximide control, log10 luminescence, MV4-11 %inh, 10 µM
[9] = relative to cycloheximide control, log10 luminescence, CMS %inh, 10 µM

SMILES	M07e %inh (M07e; [1])	ML-2 %inh (ML-2; [1])	CHRF288-11 %inh (CHRF288-11; [1])	U937 %inh (U937; [1])	CMK %inh (CMK; [1])	MOLM-13 %inh (MOLM-13; [1])	MV4-11 %inh (MV4-11; [1])	CMS %inh (CMS; [1])	further results
Oc1ncc(N(CCCl)CCCl)c(O)n1 [SJ000518988-1, URACIL MUSTARD]									M07e %inh (M07e; 10 µM): 2.028%; ML-2 %inh (ML-2; 10 µM): 1.705%; CHRF288-11 %inh (CHRF288-11; 10 µM): 3.507%; U937 %inh (U937; 10 µM): -0.2311%; CMK %inh (CMK; 10 µM): -4.305%; MOLM-13 %inh (MOLM-13; 10 µM): -0.3938%; MV4-11 %inh (MV4-11; 10 µM): -1.171%; CMS %inh (CMS; 10 µM): 1.52%
CO[C@H]1O[C@@H]2O[C@@]3(C)CC[C@H]4[C@H](C)CC[C@@H]([C@H]1C)[C@@]24OO3 [SJ000519015-1]	0.2631%	5.533%	-0.3434%	20.8%	0.2838%	2.58%	9.901%	7.594%	
CC[C@H](C)[C@@H]1NC(=O)[C@H](Cc2ccc(O)cc2)NC(=O)[C@@H](N)CSSC[C@@H](C(=O)N2CCC[C@H]2C(=O)N[C@@H](CC(C)C)C(=O)NCC(N)=O)NC(=O)[C@H](CC(N)=O)NC(=O)[C@H](CCC(N)=O)NC1=O [SJ000519020-1, OXYTOCIN]	0.04623%	-0.7579%	-2.465%	-1.829%	-2.47%	-2.698%	1.343%	-0.7099%	
CCCN(CCc1ccc(O)cc1)C(=O)[C@@H](C)c1cccc(C(=O)c2ccccc2)c1 [SJ000520373-2, NMDA298-1]	11.25%	1.661%	9.808%	10.97%	9.519%	13.67%	11.33%	3.128%	
C[C@@H](O)[C@@H]1NC(=O)[C@H](CCCCN)NC(=O)[C@@H](Cc2c[nH]c3ccccc23)NC(=O)[C@H](Cc2ccccc2)NC(=O)[C@@H](NC(=O)[C@H](N)Cc2ccccc2)CSSC[C@@H](C(=O)N[C@H](CO)[C@@H](C)O)NC1=O [SJ000520506-1, OCTREOTIDE ACETATE]	-0.4484%	0.4552%	5.062%	-3.486%	-5.736%	0.6504%	0.9577%	0.6202%	
O=C1NC(=O)/C(=C\c2ccc3nccnc3c2)S1 [SJ000534768-3, PI 3-K-GAMMA-INHIBITOR | 648450-29-7 | AS-605240 | AS605240 | PI 3-KY INHIBITOR]									M07e %inh (M07e; [2]): 2.407%; ML-2 %inh (ML-2; [3]): -0.2464%; CHRF288-11 %inh (CHRF288-11; [4]): -5.698%; U937 %inh (U937; [5]): -0.7574%; CMK %inh (CMK; [6]): -0.8645%; MOLM-13 %inh (MOLM-13; [7]): 3.402%; MV4-11 %inh (MV4-11; [8]): 0.09671%; CMS %inh (CMS; [9]): -2.146%
O=C1NC(=O)/C(=C\c2ccc3nccnc3c2)S1 [SJ000534768-4, PI 3-K-GAMMA-INHIBITOR | 648450-29-7 | AS-605240 | AS605240 | PI 3-KY INHIBITOR]									M07e %inh (M07e; [2]): 2.923%; ML-2 %inh (ML-2; [3]): 1.156%; CHRF288-11 %inh (CHRF288-11; [4]): -3.707%; U937 %inh (U937; [5]): 0.2634%; CMK %inh (CMK; [6]): 2.377%; MOLM-13 %inh (MOLM-13; [7]): 1.092%; MV4-11 %inh (MV4-11; [8]): -0.9615%; CMS %inh (CMS; [9]): 2.882%
CCOC(=O)C1=C(C)NC(C)=C(C(=O)OCC)C1c1ccccc1/C=C/C(=O)OC(C)(C)C [SJ000541098-2, LACIDIPINE]									M07e %inh (M07e; [2]): -0.9057%; ML-2 %inh (ML-2; [3]): 5.24%; CHRF288-11 %inh (CHRF288-11; [4]): -1.312%; U937 %inh (U937; [5]): 12.91%; CMK %inh (CMK; [6]): 1.983%; MOLM-13 %inh (MOLM-13; [7]): 10.16%; MV4-11 %inh (MV4-11; [8]): 6.96%; CMS %inh (CMS; [9]): -2.509%
CCOC(=O)C1=C(C)NC(C)=C(C(=O)OCC)C1c1ccccc1/C=C/C(=O)OC(C)(C)C [SJ000541098-3, LACIDIPINE]									M07e %inh (M07e; [2]): 5.059%; ML-2 %inh (ML-2; [3]): 5.833%; CHRF288-11 %inh (CHRF288-11; [4]): -0.4968%; U937 %inh (U937; [5]): 2.874%; CMK %inh (CMK; [6]): 6.472%; MOLM-13 %inh (MOLM-13; [7]): 4.748%; MV4-11 %inh (MV4-11; [8]): 8.929%; CMS %inh (CMS; [9]): 2.32%
CC1(COc2ccc(CC3SC(=O)NC3=O)cc2)CCCCC1 (stereo not shown) [SJ000546494-1, CIGLITAZONE]	-0.4942%	1.382%	3.672%	0.7442%	0.5377%	-0.9508%	4.011%	-1.931%	
Cc1cccc(Nc2cc(Cl)nc(SCC(=O)O)n2)c1C [SJ000546497-1, WY 14643 | WY-14643 | WY-14643 (PIRINIXIC ACID)]	2.884%	1.805%	0.5396%	0.764%	-0.2043%	0.03488%	2.638%	-0.6556%	
CC(C)(c1ccc(OCC2CO2)cc1)c1ccc(OCC2CO2)cc1 (stereo not shown) [SJ000546498-1, BADGE]	-0.5797%	0.3622%	3.756%	-0.2101%	0.4379%	-1.249%	2.685%	-0.9549%	
Oc1ccc(-c2c(-c3ccccc3)nn3c(C(F)(F)F)cc(C(F)(F)F)nc23)cc1 [SJ000546500-1, PHTPP]	-1.02%	-0.1539%	-1.975%	-1.023%	-2.936%	-1.733%	0.8155%	-0.8785%	
CCCCCS(=O)(=O)CCCCCCCCCCn1c(-c2ccc(O)cc2)c(C)c2cc(O)ccc21 [SJ000546504-1, ZK 164015]	14.67%	14.83%	8.284%	10.37%	21%	28.37%	19.87%	7.105%	
CCC[C@@H]1CC2=CC(=O)CC[C@]2(C)[C@H]2CC[C@@]3(C)[C@@H](CC[C@@]34CCC(=O)O4)[C@H]12 [SJ000546508-1, RU 26752]	0.5508%	2.095%	-0.7374%	-0.3202%	-5.773%	-0.802%	1.882%	0.3867%	
CCC[C@@H]1CC2=CC(=O)CC[C@]2(C)[C@H]2CC[C@@]3(C)[C@@H](CC[C@@]3(O)CCC(=O)O)[C@H]12 [SJ000546509-1, RU 28318]	2.635%	3.121%	5.992%	-0.6477%	5.542%	5.695%	0.6325%	2.41%	
COC(=O)/C=C/c1cccc(N(Cc2ccc(-c3ccc(N(C)C)cc3)cc2)C(=O)C2CCCCC2)c1 [SJ000546510-1, FEXARAMINE]	1.611%	2.174%	-3.158%	-1.175%	-0.2535%	-2.683%	-0.6838%	0.8467%	
Clc1ccc(-c2nc3sccn3c2/C=N/OCc2ccc(Cl)c(Cl)c2)cc1 [SJ000546521-1, CITCO]	0.1835%	-0.03995%	8.549%	-0.9685%	-3.05%	-1.049%	0.01601%	0.2267%	
Cc1ccc(C(=O)Cn2c3c(sc2=N)CCCC3)cc1 [SJ000546523-1, PIFITHRIN-ALPHA HYDROBROMIDE | PIFITHRIN-ALPHA HYDROBROMIDE | | PIFITHRIN-ALPHA (PFTALPHA)]	2.173%	-0.3437%	6.15%	-0.03033%	3.731%	4.765%	4.352%	0.7689%	
CN1C(=O)CC(C)(c2ccccc2)C1=O (stereo not shown) [SJ000552432-1, METHSUXIMIDE]	28%	19.33%	16.75%	35.22%	0.7754%	28.78%	59.35%	-2.292%	

Source: paper PMC6522510 (Nature Communications, 2019)
